According to patent US4593106A, “4-[2-(dialkylamino)ethyl]-7-hydroxyisatins” (SmithKline Beckman Corporation, priority 1984, dated 1986):
Read-outs that look alike come from different tables or passages of the source.

Experiments:
[1] = biological target: T1, D2 (Oryctolagus cuniculus, UniProt G1T1Q0); test: perfused rabbit ear artery test for D2-agonist activity
T1 construct: perfused rabbit ear artery test; from tissue; host or cells: perfused rabbit ear artery (sympathetic nerve terminals)

[2] = test system: D2 -receptors; test: peripheral D2-agonist selectivity (general statement, no test named); conditions: main locus of action at presynaptic dopaminergic receptors or sympathetic nerve terminals

T1 sequence (G1T1Q0 1-443): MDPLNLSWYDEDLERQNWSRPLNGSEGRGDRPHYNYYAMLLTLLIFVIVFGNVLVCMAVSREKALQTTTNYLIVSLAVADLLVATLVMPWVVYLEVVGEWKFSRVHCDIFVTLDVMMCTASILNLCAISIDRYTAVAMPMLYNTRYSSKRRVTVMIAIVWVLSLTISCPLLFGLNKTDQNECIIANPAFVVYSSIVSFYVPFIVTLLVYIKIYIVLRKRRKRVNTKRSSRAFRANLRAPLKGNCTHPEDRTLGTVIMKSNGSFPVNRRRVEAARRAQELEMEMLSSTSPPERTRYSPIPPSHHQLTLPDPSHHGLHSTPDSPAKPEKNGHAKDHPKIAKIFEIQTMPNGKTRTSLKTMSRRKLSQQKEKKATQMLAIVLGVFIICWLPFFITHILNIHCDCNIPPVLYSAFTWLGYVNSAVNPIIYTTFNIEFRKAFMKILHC

Row | SMILES | EC50 [1] | selective peripheral D2-agonist [2] | EC50 ([1]; perfused rabbit ear artery test, D2-agonist activity, read-out: EC50)
1 | Br.CCCN(CCC)CCc1ccc(O)c2c1C(=O)C(=O)N2 [4-[2-(di-n-propylamino)ethyl]-7-hydroxyisatin hydrobromide] | 2 to 7 nM | selective peripheral D2 -agonists | 
2 | CCCN(CCC)CCc1ccc(O)c(O)c1 [N,N-di-n-propyldopamine, reference compound] |  |  | 50 to 60 nM
